Among the data in patent US20230391760A1, “HETEROCYCLIC GLP-1 AGONISTS” (Gasherbrum Bio, Inc., priority 2020, published 2023) are EC50 values, retold here.

The structures appear in SMILES notation.

Sequence of GLP-1 Receptor (P43220 24-463, species assumed): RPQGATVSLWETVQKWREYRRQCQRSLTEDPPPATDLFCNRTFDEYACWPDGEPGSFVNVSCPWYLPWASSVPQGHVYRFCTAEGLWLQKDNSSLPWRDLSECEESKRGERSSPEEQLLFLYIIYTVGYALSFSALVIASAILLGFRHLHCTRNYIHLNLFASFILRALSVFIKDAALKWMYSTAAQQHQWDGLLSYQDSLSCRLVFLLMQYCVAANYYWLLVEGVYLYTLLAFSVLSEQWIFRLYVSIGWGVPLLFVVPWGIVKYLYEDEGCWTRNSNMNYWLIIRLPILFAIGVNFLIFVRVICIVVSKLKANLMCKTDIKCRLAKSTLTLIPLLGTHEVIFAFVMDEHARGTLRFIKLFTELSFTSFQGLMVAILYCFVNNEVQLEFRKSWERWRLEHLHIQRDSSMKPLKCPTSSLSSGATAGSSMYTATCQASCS

In this assay the target is GLP-1 Receptor (Homo sapiens, UniProt P43220). The assay can be described thus: GLP-1R agonist cAMP stimulation assay (HEK293/GLP1R/CRE-LUC cells, cAMP dynamic 2 Kit). Format: cell-based. As to conditions: HEK293/CRE-Luc cell line stably expressing the GLP-1 Receptor, 30 min at 37° C. The method, boiled down:
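cAMP measured by HTRF competition (d2-labelled cAMP with cryptate antibody, 1 h, room temperature, protected from light). Before that, GLP1R/CRE-Luc HEK293 cells (1000/well) were exposed for 30 min at 37 °C to half-log compound dilutions in DPBS containing IBMX 0.5 mM and BSA 0.1%.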
For `Fc1cc(Cl)ccc1COc1ncc(F)c(C2=CCC(Cc3nc4cc(-c5nnn[nH]5)ccc4n3C[C@@H]3CCO3)CC2)n1` (stereo partly drawn) [Compound 241a, 2-((4-(2-((4-chloro-2-fluorobenzyl)oxy)-5-fluoropyrimidin-4-yl)cyclohex-3-en-1-yl)methyl)-1-(((S)-oxetan-2-yl)methyl)-5-(1H-tetrazol-5-yl)-1H-benzo[d]imidazole], the half-maximal effective concentration (EC50) (usually the concentration at which the effect is half-maximal) came out at 0.32 nM.

`Fc1cc(Cl)ccc1COc1cccc(N2CCN(Cc3nc4cc(-c5nnc(C(F)(F)F)[nH]5)nnc4n3C[C@@H]3CCO3)CC2)n1` [Compound 492a, 1-{6-[(4-chloro-2-fluorophenyl)methoxy]pyridin-2-yl}-4-[(7-{[(2S)-oxetan-2-yl]methyl}-3-[5-(trifluoromethyl)-4H-1,2,4-triazol-3-yl]-7H-imidazo[4,5-c]pyridazin-6-yl)methyl]piperazine] yielded an EC50 of 0.084 nM.

`CO[C@H](C)Cn1c(CN2CCC(c3cccc4c3O[C@@](C)(c3ccc(Cl)cn3)O4)CC2)nc2cc(-c3nnn[nH]3)ncc21` [Compound 429a, 5-chloro-2-[(2S)-4-[1-({3-[(2R)-2-methoxypropyl]-6-(1H-1,2,3,4-tetrazol-5-yl)-3H-imidazo[4,5-c]pyridin-2-yl}methyl)piperidin-4-yl]-2-methyl-2H-1,3-benzodioxol-2-yl]pyridine] registered an EC50 of 0.24 nM.

As for `CC1(c2ccc(Cl)cc2F)Oc2cccc(C3CCN(Cc4nc5cc(-c6noc(=O)[nH]6)ccc5n4CC4(C#N)CC4)CC3)c2O1` (stereo not drawn) [Compound 231a, 1-((2-((4-(2-(4-chloro-2-fluorophenyl)-2-methylbenzo[d][1,3]dioxol-4-yl)piperidin-1-yl)methyl)-5-(5-oxo-4,5-dihydro-1,2,4-oxadiazol-3-yl)-1H-benzo[d]imidazol-1-yl)methyl)cyclopropane-1-carbonitrile], a half-maximal effect (EC50) was put at 0.031 nM.

On to `CO[C@H](C)Cn1c(CN2CCC(c3cccc4c3O[C@@](C)(c3ccc(C#N)cc3F)O4)CC2)nc2cc(-c3nnc(C(F)(F)F)[nH]3)ncc21` [Compound 442a, 3-fluoro-4-[(2S)-4-[1-({3-[(2R)-2-methoxypropyl]-6-[5-(trifluoromethyl)-4H-1,2,4-triazol-3-yl]-3H-imidazo[4,5-c]pyridin-2-yl}methyl)piperidin-4-yl]-2-methyl-2H-1,3-benzodioxol-2-yl]benzonitrile], for which the concentration giving a half-maximal response (EC50) is 0.033 nM.

In turn, `C[C@H]1CN(c2ccc(F)c(OCc3ccc(C#N)cc3F)c2)CCN1Cc1nc2cc(-c3nnc(C(F)(F)F)[nH]3)nnc2n1C[C@@H]1CCO1` [Compound 522a, 3-fluoro-4-({2-fluoro-5-[(3S)-3-methyl-4-[(7-{[(2S)-oxetan-2-yl]methyl}-3-[5-(trifluoromethyl)-4H-1,2,4-triazol-3-yl]-7H-imidazo[4,5-c]pyridazin-6-yl)methyl]piperazin-1-yl]phenoxy}methyl)benzonitrile] registered a concentration for a half-maximal effect (EC50) of 0.46 nM.

In turn, `O=C(Nc1ccc2c(c1)nc(CN1CCC(c3cccc(OCc4ccc(Cl)cc4F)n3)CC1)n2C[C@@H]1CCO1)C1COCCC1(F)F` (stereo partly drawn) [Compound 189a, N-{2-[(4-{6-[(4-chloro-2-fluorophenyl)methoxy]pyridin-2-yl}piperidin-1-yl)methyl]-1-{[(2S)-oxetan-2-yl]methyl}-1H-1,3-benzodiazol-5-yl}-4,4-difluorooxane-3-carboxamide] showed an EC50 of 0.82 nM.

Turning to `Cc1nnc(-c2cc3nc(CN4CCC(c5cccc6c5O[C@@](C)(c5ccc(Cl)cn5)O6)CC4)n(C[C@@H]4CCO4)c3nn2)[nH]1` [Compound 477a, 5-chloro-2-[(2S)-2-methyl-4-(1-{[3-(5-methyl-4H-1,2,4-triazol-3-yl)-7-{[(2S)-oxetan-2-yl]methyl}-7H-imidazo[4,5-c]pyridazin-6-yl]methyl}piperidin-4-yl)-2H-1,3-benzodioxol-2-yl]pyridine], the response was half-maximal at 0.98 nM (EC50).

For the molecule `CO[C@@H](C)Cn1c(CN2CCC(c3cccc4c3O[C@@](C)(c3ccc(C#N)cc3F)O4)CC2)nc2cc(-c3nnc(C(F)(F)F)[nH]3)ncc21` [Compound 454a, 3-fluoro-4-[(2S)-4-[1-({3-[(2S)-2-methoxypropyl]-6-[5-(trifluoromethyl)-4H-1,2,4-triazol-3-yl]-3H-imidazo[4,5-c]pyridin-2-yl}methyl)piperidin-4-yl]-2-methyl-2H-1,3-benzodioxol-2-yl]benzonitrile], the EC50 came out at 0.17 nM.

Consider `C[C@H]1CN(c2cccc(OCc3ccc(Cl)cc3F)n2)CCN1Cc1nc2cc(-c3nnc(C(F)(F)F)[nH]3)nnc2n1C[C@@H]1CCO1` [Compound 519a, (2S)-4-{6-[(4-chloro-2-fluorophenyl)methoxy]pyridin-2-yl}-2-methyl-1-[(7-{[(2S)-oxetan-2-yl]methyl}-3-[5-(trifluoromethyl)-4H-1,2,4-triazol-3-yl]-7H-imidazo[4,5-c]pyridazin-6-yl)methyl]piperazine], for which the EC50 is 0.04 nM.

The molecule `Cc1nnc(-c2ccc3c(c2)nc(CN2CCC(c4cccc5c4OC(C)(c4ccc(Cl)cn4)O5)CC2)n3C[C@@H]2CCO2)[nH]1` (stereo partly drawn) [Compound 271a, 2-({4-[2-(5-chloropyridin-2-yl)-2-methyl-2H-1,3-benzodioxol-4-yl]piperidin-1-yl}methyl)-5-(5-methyl-4H-1,2,4-triazol-3-yl)-1-{[(2S)-oxetan-2-yl]methyl}-1H-1,3-benzodiazole] came in with an EC50 of 0.34 nM.

Molecule `O=C(O)CCc1ccc2c(c1)nc(CN1CC=C(c3cccc(OCc4ccc(Cl)cc4F)n3)CC1)n2C[C@@H]1CCO1` [Compound 113a, (S)-3-(2-((6-((4-chloro-2-fluorobenzyl)oxy)-3′,6′-dihydro-[2,4′-bipyridin]-1′(2′H)-yl)methyl)-1-(oxetan-2-ylmethyl)-1H-benzo[d]imidazol-5-yl)propanoic acid] registered a half-maximal effective concentration (EC50) of 38.2 nM.

Molecule `CC1(c2ccc(Cl)cc2F)Oc2cccc(C3CCN(Cc4nc5cc(-c6cn(CCO)nn6)ccc5n4C[C@@H]4CCO4)CC3)c2O1` (stereo partly drawn) [Compound 228a, 2-{4-[2-({4-[2-(4-chloro-2-fluorophenyl)-2-methyl-2H-1,3-benzodioxol-4-yl]piperidin-1-yl}methyl)-1-{[(2S)-oxetan-2-yl]methyl}-1H-1,3-benzodiazol-5-yl]-1H-1,2,3-triazol-1-yl}ethan-1-ol] showed a 50% effective concentration (EC50) of 0.19 nM.

The molecule `C[C@]1(c2ccc(Cl)cc2F)Oc2cccc(C3CCN(Cc4nc5cc(-c6noc(=O)[nH]6)nnc5n4C[C@@H]4CCO4)CC3)c2O1` [Compound 348a, 3-[6-({4-[(2S)-2-(4-chloro-2-fluorophenyl)-2-methyl-2H-1,3-benzodioxol-4-yl]piperidin-1-yl}methyl)-7-{[(2S)-oxetan-2-yl]methyl}-7H-imidazo[4,5-c]pyridazin-3-yl]-4,5-dihydro-1,2,4-oxadiazol-5-one] gave a concentration giving a half-maximal response (EC50) of 0.062 nM.

Take `C[C@]1(c2ccc(Cl)cn2)Oc2cccc(C3CCN(Cc4nc5cc(-c6nnn[nH]6)nnc5n4C[C@@H]4CCO4)CC3)c2O1` [Compound 461a, 5-chloro-2-[(2S)-2-methyl-4-{1-[(7-{[(2S)-oxetan-2-yl]methyl}-3-(1H-1,2,3,4-tetrazol-5-yl)-7H-imidazo[4,5-c]pyridazin-6-yl)methyl]piperidin-4-yl}-2H-1,3-benzodioxol-2-yl]pyridine]: a half-maximal effect (EC50) was put at 0.23 nM.
